Data on two compounds can be found in US20040054244A1, “Process of quadricyclane production” (Exciton, Inc., priority 2000, published 2004).

Some results are limits rather than exact numbers.

A short description of the series: Solubility of sensitizer in norbornadiene. The conditions noted are these: at room temperature.

`CCN(CC)c1ccc(C(=O)c2ccc(N(CC)CC)cc2)cc1` [EMK, 4,4′-bis (diethylamino) benzophenone]: the solubility in norbornadiene entry is listed as “at least 3.86 % by weight”. With `CN(C)c1ccc(C(=O)c2ccc(N(C)C)cc2)cc1` [MK, 4,4′-bis (dimethylamino)-benzophenone], the solubility in norbornadiene is at most 0.32 % by weight.
